Results on 28 molecules are retold here after patent publication US10703755B2, “Substituted purine derivative” (SUMITOMO DAINIPPON PHARMA CO., LTD., priority 2016, dated 2020).

For the assay, the target named is human TLR7 (Homo sapiens (Human), UniProt Q9NYK1). Nature of the assay: Test for evaluating the inhibition of the activation of human TLR7 (SEAP reporter, TLR7/NF-κB/SEAPorter HEK293 cell). The following applies: R-848 200 nmol/L; for inhibitory effect against TLR7 in the test for evaluating inhibition of the activation of TLR7: SEAP activity, result in words; for pIC50: SEAP reporter. In kind it is cell-based. The method in brief: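 HEK293 cells stably expressing full-length human TLR7 and an NF-κB-driven SEAP reporter. They were grown in DMEM with 10% FBS and blasticidin, and seeded at 5×10^4 cells/well overnight at 37° C, 5% CO2. Inhibition of TLR7 activation was read as SEAP output.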
Sequence of human TLR7 (Q9NYK1 27-1049): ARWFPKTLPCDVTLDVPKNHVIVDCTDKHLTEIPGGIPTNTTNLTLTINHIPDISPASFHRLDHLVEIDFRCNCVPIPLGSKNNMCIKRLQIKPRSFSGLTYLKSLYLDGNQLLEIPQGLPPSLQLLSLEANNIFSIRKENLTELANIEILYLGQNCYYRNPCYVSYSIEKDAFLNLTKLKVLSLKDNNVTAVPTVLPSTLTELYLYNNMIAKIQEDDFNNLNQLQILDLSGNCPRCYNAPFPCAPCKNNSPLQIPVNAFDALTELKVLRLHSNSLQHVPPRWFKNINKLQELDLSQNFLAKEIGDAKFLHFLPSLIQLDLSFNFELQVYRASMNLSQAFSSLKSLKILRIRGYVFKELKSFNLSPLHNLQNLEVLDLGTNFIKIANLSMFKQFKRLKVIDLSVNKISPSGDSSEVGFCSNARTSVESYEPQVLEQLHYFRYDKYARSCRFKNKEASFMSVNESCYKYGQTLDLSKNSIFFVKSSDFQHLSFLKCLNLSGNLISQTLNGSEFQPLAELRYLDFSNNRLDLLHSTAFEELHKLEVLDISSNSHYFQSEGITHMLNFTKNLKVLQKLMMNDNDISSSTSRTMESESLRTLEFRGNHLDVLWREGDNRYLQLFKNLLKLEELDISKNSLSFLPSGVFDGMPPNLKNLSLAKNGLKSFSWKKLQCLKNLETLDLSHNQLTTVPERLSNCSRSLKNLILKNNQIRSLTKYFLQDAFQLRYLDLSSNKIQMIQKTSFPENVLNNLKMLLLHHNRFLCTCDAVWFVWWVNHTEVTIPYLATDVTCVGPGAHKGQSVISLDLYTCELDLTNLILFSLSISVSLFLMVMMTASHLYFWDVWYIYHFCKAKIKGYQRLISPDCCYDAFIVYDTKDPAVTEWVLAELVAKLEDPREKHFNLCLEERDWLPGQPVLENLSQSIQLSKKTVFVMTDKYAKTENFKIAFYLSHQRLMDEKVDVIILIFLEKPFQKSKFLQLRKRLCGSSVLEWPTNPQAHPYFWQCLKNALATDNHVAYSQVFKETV

pIC50: −log10 of the molar value.

For orientation: pIC50 means the IC50 on a negative log10 scale, so that one unit is a factor of ten. A lower pIC50 goes with a large IC50.

Turning to `COc1nc(C)c2nc(-c3cncc(F)c3)n(Cc3ccc(O[C@@H]4CN5CCC4CC5)cc3F)c2n1` [Example 412, 9-{4-[(3S)-1-azabicyclo[2.2.2]oct-3-yloxy]-2-fluorobenzyl}-8-(5-fluoropyridin-3-yl)-2-methoxy-6-methyl-9H-purine], the “inhibitory effect against TLR7 in the test for evaluating inhibition of the activation of TLR7” value (shortened to “inhibitory effect against TLR7”) is reported as “potent inhibitory effect against TLR7” and the pIC50 is 8.30.
For `COc1nc(C)c2nc(-c3cncc(F)c3)n(Cc3ccc(O[C@H]4CN5CCC4CC5)cc3F)c2n1` [Example 413, 9-{4-[(3R)-1-azabicyclo[2.2.2]oct-3-yloxy]-2-fluorobenzyl}-8-(5-fluoropyridin-3-yl)-2-methoxy-6-methyl-9H-purine] the same measures were “potent inhibitory effect against TLR7” and 8.05.
On to `COc1nc(C)c2nc(-c3cncc(F)c3)n(Cc3ccc(O[C@H]4CCN(C)C4)cc3F)c2n1` [Example 414, 9-(2-fluoro-4-{[(3S)-1-methylpyrrolidin-3-yl]oxy}benzyl)-8-(5-fluoropyridin-3-yl)-2-methoxy-6-methyl-9H-purine], for which the “inhibitory effect against TLR7” value is “potent inhibitory effect against TLR7” and the pIC50 is 7.80.
`COc1nc(C)c2nc(-c3cncc(F)c3)n(Cc3ccc(O[C@@H]4CCN(C)C4)cc3F)c2n1` [Example 415, 9-(2-fluoro-4-{[(3R)-1-methylpyrrolidin-3-yl]oxy}benzyl)-8-(5-fluoropyridin-3-yl)-2-methoxy-6-methyl-9H-purine]: the “inhibitory effect against TLR7” value is reported as “potent inhibitory effect against TLR7” and the pIC50 was 7.80.
Take `COc1nc(C)c2nc(-c3cncc(F)c3)n(Cc3ccc(OC4CN(C)C4)cc3F)c2n1` [Example 416, 9-{2-fluoro-4-[(1-methylazetidin-3-yl)oxy]benzyl}-8-(5-fluoropyridin-3-yl)-2-methoxy-6-methyl-9H-purine]: the “inhibitory effect against TLR7” value is listed as “potent inhibitory effect against TLR7” and the pIC50 is 7.30.
Regarding `COc1nc(C)c2nc(-c3cncc(F)c3)n(Cc3ccc(O[C@@H]4C[C@H]5CC[C@@H](C4)N5C)cc3F)c2n1` [Example 418, 9-(2-fluoro-4-{[(3-exo)-8-methyl-8-azabicyclo[3.2.1]oct-3-yl]oxy}benzyl)-8-(5-fluoropyridin-3-yl)-2-methoxy-6-methyl-9H-purine], the “inhibitory effect against TLR7” value is listed as “potent inhibitory effect against TLR7” and the pIC50 is 7.72.
`COc1nc(C)c2nc(-c3cncc(F)c3)n(Cc3ccc(OCC4CN(C(=O)OC(C)(C)C)C4)cc3F)c2n1` [Example 419]: the pIC50 is 6.15.
On to `COc1nc(C)c2nc(-c3cncc(F)c3)n(Cc3ccc(OCCN(C)C)cc3F)c2n1` [Example 420], for which the pIC50 was 6.86.
With `COc1nc(C)c2nc(-c3cncc(F)c3)n(Cc3ccc(OCCCN(C)C)cc3F)c2n1` [Example 421], the “inhibitory effect against TLR7” value is listed as “potent inhibitory effect against TLR7” and the pIC50 is 7.14.
Consider `CCOc1nc(C)c2nc(-c3cncc(F)c3)n(Cc3cnn(CC4CNCCO4)c3)c2n1` (stereo not drawn) [Example 424], for which the pIC50 was 7.00.
Consider `CCOc1nc(C)c2nc(-c3cncc(F)c3)n(Cc3cnn(CC4CNCCO4)c3)c2n1` (stereo not drawn) [Example 425], for which the negative-log IC50 (pIC50) is 7.03.
In turn, `CCOc1nc(C)c2nc(-c3cncc(F)c3)n(Cc3cnn(CC4COCCN4)c3)c2n1` (stereo not drawn) [Example 426] had a pIC50 of 6.70.
The molecule `CCOc1nc(C)c2nc(-c3cncc(F)c3)n(Cc3cnn(CC4COCCN4)c3)c2n1` (stereo not drawn) [Example 427] showed a pIC50 of 7.55.
On the same count and under the same terms, the result for `CCOc1nc(C)c2nc(-c3cncc(F)c3)n(Cc3cnn(CC4CCNCC4)c3)c2n1` [Example 428] reads 6.68; that for `CCOc1nc(C)c2nc(-c3cncc(F)c3)n(Cc3cnc(CC4CCNCC4)cc3OC)c2n1` [Example 430], 6.26.
For `COc1nc(C)c2nc(-c3cncc(F)c3)n(Cc3ccc(C4CCNCC4)cc3F)c2n1` [Example 431], the “inhibitory effect against TLR7” value is on record as “potent inhibitory effect against TLR7” and the pIC50 was 8.10.
For the molecule `COc1nc(C)c2nc(-c3cncc(F)c3)n(Cc3ccc(CC4CCNCC4)cc3F)c2n1` [Example 432], the “inhibitory effect against TLR7” value is “potent inhibitory effect against TLR7” and the pIC50 was 7.21.
Take `COc1nc(C)c2nc(-c3cncc(F)c3)n(Cc3ccc(O[C@H]4C[C@H]5CC[C@@H](C4)N5)cc3F)c2n1` [Example 433]: the “inhibitory effect against TLR7” value was “potent inhibitory effect against TLR7” and the pIC50 was 8.05.
`COc1nc(C)c2nc(-c3cncc(F)c3)n(Cc3ccc(OCC4CNC4)cc3F)c2n1` [Example 434] showed a pIC50 of 7.05.
Same read-out and setting: the result for `COc1nc(C)c2nc(-c3cncc(F)c3)n(Cc3ccc(C4CCNC4)cc3F)c2n1` (stereo not drawn) [Example 435] reads 7.74.
`COc1nc(C)c2nc(-c3cncc(C#N)c3)n(Cc3ccc(O[C@H]4C[C@H]5CC[C@@H](C4)N5)cc3F)c2n1` [Example 436]: the “inhibitory effect against TLR7” value is “potent inhibitory effect against TLR7” and the pIC50 was 7.43.
On to `COc1nc(C)c2nc(-c3cccnc3)n(Cc3ccc(O[C@H]4C[C@H]5CC[C@@H](C4)N5)cc3F)c2n1` [Example 437], for which the “inhibitory effect against TLR7” value is reported as “potent inhibitory effect against TLR7” and the pIC50 was 7.80.
In the case of `COc1nc(C)c2nc(-c3ccc(C(N)=O)nc3)n(Cc3ccc(OC4CN5CCC4CC5)cc3F)c2n1` (stereo not drawn) [Example 439], the pIC50 is 6.87.
On to `COc1nc(C)c2nc(-c3ccc4ncccc4c3)n(Cc3ccc(OC4CN5CCC4CC5)cc3F)c2n1` (stereo not drawn) [Example 440], for which the pIC50 was 7.08. This pIC50 is 0.21 log units higher than that of the molecule before.
`COc1nc(C)c2nc(-c3cccnn3)n(Cc3ccc(OC4CN5CCC4CC5)cc3F)c2n1` (stereo not drawn) [Example 441] had a pIC50 of 6.75.
Turning to `COc1nc(C)c2nc(-c3cncc(F)c3)n(Cc3cc(C4CN5CCC4CC5)ccc3F)c2n1` (stereo not drawn) [Example 443, 9-[5-(1-azabicyclo[2.2.2]oct-3-yl)-2-fluorobenzyl]-8-(5-fluoropyridin-3-yl)-2-methoxy-6-methyl-9H-purine], the “inhibitory effect against TLR7” value is given as “potent inhibitory effect against TLR7” and the pIC50 was 7.77.
Consider `COc1nc(C)c2nc(-c3cncnc3)n(Cc3ccc([C@@H]4CN5CCC4CC5)cc3F)c2n1` [Example 444, 9-{4-[(3R)-1-Azabicyclo[2.2.2]oct-3-yl]-2-fluorobenzyl}-2-methoxy-6-methyl-8-(pyrimidin-5-yl)-9H-purine], for which the pIC50 was 7.01.
On to `COc1nc(C)c2nc(-c3cncnc3)n(Cc3ccc([C@H]4CN5CCC4CC5)cc3F)c2n1` [Example 445, 9-{4-[(3S)-1-azabicyclo[2.2.2]oct-3-yl]-2-fluorobenzyl}-2-methoxy-6-methyl-8-(pyrimidin-5-yl)-9H-purine], for which the “inhibitory effect against TLR7” value is “potent inhibitory effect against TLR7” and the pIC50 was 7.68.
